Here are results for one molecule from patent publication US20230398125A1, “TREATING HEPATITIS” (Albireo AB, priority 2022, published 2023).

Each structure is given as a SMILES string. Read-outs that look alike come from different tables or passages of the source. Where only a bound is given, the exact number is not on record here.

In series [1] the test system is NTCP-HepG2 cells. As to the kind of experiment: MTT cytotoxicity assay. Format: cell-based, human. The note with it: 1 nM-100 μM, HepG2 cells expressing NTCP. The method, then: The In Vitro Toxicology Assay Kit (Sigma-Aldrich) was used to perform a 3-[4,5-dimethylthiazole-2-yl]-2,5-diphenyltetrazolium bromide (MTT) assay to measure the cytotoxicity of the test item according to the manufacturer's protocol. Briefly, NTCP-HepG2 cells were incubated with 100 μL of the indicated concentrations of the test item solved in Hepatocyte Growth Medium (HGM) over 6 h at 37° C. After 6 h, medium was replaced by inhibitor-free HGM and cells were cultured for additional 24 h. Then medium was removed and 100 μL DMEM containing 0.5 mg/mL MTT was added and cells were incubated for 1 h at 37° C. Finally, the medium was replaced by 100 μL isopropyl alcohol (Sigma-Aldrich) and samples were measured by Glo-Max-Multi Detection System (Promega, Madison, Wis., USA). See also Lowjaga K A A, et al. (2020). Long-term trans-inhibition of the hepatitis B and D virus receptor NTCP by taurolithocholic acid. Am J Physiol Gastrointest Liver Physiol 320(1):G66-G80; and Kirstgen et al. 2021.

In series [2] the test system is HBV genotype C. In words: Serum HBsAg in HBV-infected PXB mice. Type of series: in vivo, hepatitis B virus. Conditions: 10 mg/kg and 30 mg/kg, Day 7. The method, then:
Target volume of blood was collected from all surviving animals under isoflurane anesthesia via the retro-orbital plexus/sinus using Intramedic™ Polyethylene Tubing at each time point. Two microliters (2 μL) from the collected blood were used for human albumin measurements. The remaining blood was centrifuged to separate serum to be used for analyzing the indicated biomarkers. Blood samples were collected according to Table 8.
The individual blood samples of the animals were left at room temperature for at least 5 minutes to coagulate and then centrifuged at 13200×g, 4° C. for 3 minutes to obtain serum. The serum was divided into separate labeled microtubes and stored at −80° C. until analysis.
Serum HBsAg concentration was determined by SRL, Inc. (Tokyo, Japan) based on a Chemiluminescent Enzyme Immuno Assay (CLEIA) developed by Fujirebio ([…] HBsAg-HQ, […]® Prestoll). The dilution factor was 30 and 10, and the measurement range of this assay was between 0.005 and 150 IU/mL. For the 30-fold diluted samples, the measurement range was adjusted to be between 0.15 and 4500 IU/mL. And for the 10-fold diluted samples, the measurement range was adjusted to be between 0.05 and 1500 IU/mL. The lowest quantification limit of this assay was 0.15 IU/mL serum.

The subject of series [3] is Primary Human Hepatocytes. As to the kind of experiment: XTT cell toxicity in primary human hepatocytes. Format: cell-based. The method, then:
(§1) Multiplicity of Infection (MOI) is defined as the number of HBV genome equivalents, as determined by the qPCR quantitation, added per cell in the respective growth format. The overnight media was removed from the cells and replaced with 190 μL of new, serum-free HI media/4% PEG8000 and 10 μL of the diluted virus stock (HepG2 AD38 genotype D) for a MOI of 500. Medium alone was added to the cells containing compound for the parallel cytotoxicity evaluation. After 18 hours of virus infection, the cells were gently washed five times with DPBS, followed by a new addition of 200 μL HI media containing compounds on day 1, day 4 and day 7 post-infection. In one set of experiments (Study #01), the effect of giving compound 18 h prior to infection, versus 18 h post-infection was studied. The supernatant removed from the cytotoxicity plates at each medium change was stored at −20° C. for shipment to the client. The supernatant was collected at 10 days post infection and stored at −20° C. for total extracellular HBV DNA copy number to be quantitatively determined by qPCR. Cell viability was measured by XTT tetrazolium dye at day 10 for the cytotoxicity plates.
(§2) Following incubation at 37° C. in a 5% CO2 incubator for ten days, the test plates were stained with the tetrazolium dye XTT (2,3-bis(2-methoxy-4-nitro-5-sulfophenyl}-5-[(phenylamino)carbonyl]-2H-tetrazolium hydroxide). XTT-tetrazolium was metabolized by the mitochondrial enzymes of metabolically active cells to a soluble formazan product. XTT solution was prepared daily as a stock of 1 mg/mL in RPMI1640. Phenazine methosulfate (PMS) solution was prepared at 0.15 mg/mL in PBS and stored in the dark at −20° C.
(§3) XTT/PMS stock was prepared immediately before use by adding 40 μL of PMS per mL of XTT solution. Fifty microliters of XTT/PMS were added to each well of the plate and the plate was re-incubated for 4 hours at 37° C. Plates were sealed with adhesive plate sealers and shaken gently or inverted several times to mix the soluble formazan product and the plate was read spectrophotometrically at 450/650 nm with a Molecular Devices Vmax plate reader.
(§4) Each concentration of inhibitor and controls were analyzed in triplicate for HBV DNA copies and for cellular toxicity, respectively. From control wells without inhibitor, the mean of these three replicates was calculated and the HBV DNA mean was set to 100% viral control and the XTT mean was set to 100% cell viability. The effect of compound was then expressed as % of viral control and % cell viability, respectively.

Series [4] can be described thus: XTT cell toxicity in primary human hepatocytes. Conditions: human, primary human hepatocytes, read-out: TC50. Type of series: cell-based. The method, then:
as §1, §2, §3, §4

As for `CCCCC1CN(c2ccccc2)c2cc(SC)c(O/C=C(\F)C(=O)O)cc2S(=O)(=O)N1C` (stereo not shown) [Compound 1, (Z)-3-((3-butyl-2-methyl-7-(methylthio)-1,1-dioxido-5-phenyl-2,3,4,5-tetrahydro-1,2,5-benzothiadiazepin-8-yl)oxy)-2-fluoroacrylic acid], the “cytotoxic effects (MTT)” value in series [1] was “no cytotoxic effects”. For the same molecule, in series [2], the “serum HBsAg compared to controls” value is “lower”. Also, the TC50 in series [3] (Study #01, 18 h post-infection section) was over 1 µM. Also, the “effect on cell viability” value in series [3] (any concentration tested (up to 100 μmol/L)) is “did not affect cell viability”. Besides, the CC50 at 10 days was over 1 µM in series [4] (Study #01, XTT, PHH); over 0.2 µM in series [4] (Study #02); over 0.05 µM in series [4] (Study #03).
